Test results published in US20230095520A1, “PHARMACEUTICAL COMPOSITION FOR PREVENTING OR TREATING CANCER COMPRISING AZOLE DERIVATIVES OR PHARMACEUTICALLY ACCEPTABLE SALT THEREOF” (Yungjin Pharm. Co., Ltd., priority 2020, published 2023).

Assays:
MDA-MB-468 cells = assay: MDA-MB-468 cell proliferation inhibition (MTT); type: cell-based; conditions: MDA-MB-468 proliferation
Procedure: MDA-MB-468 cells are one of the triple-negative breast cancer (TNBC: negative for the expression of estrogen receptor, progesterone receptor and HER2) cells known as a malignant tumor that is difficult to diagnose at an early stage and has a high metastatic capacity, and these cells are used to test inhibition of proliferation and survival of breast cancer cells.
MDA-MB-468 cells cultured in a 96-well cell culture plate were treated with the compound of the present invention and cultured for 72 hours. Thereafter, the antiproliferative effect of the compound was assayed by the MTT method using a tetrazolium salt.

MOLM-13-GFP human cells = assay: MOLM-13 orthotopic transplantation animal model; type: in vivo; conditions: NSG mouse, tail vein, 1 or 2 mg/kg (2D on/5D off) or 2 mg/kg BIW, 3 to 4 weeks, versus control group
Procedure: MOLM-13 cells showing cancer cell inhibitory effect were selected, and Compound 121 was tested as follows using an orthotopic transplantation model.
The animal model used for efficacy evaluation is an NSG (Jackson lab, #005557, USA) mouse lacking the IL-2 receptor gamma gene, in which the immune activity of T cells, B cells, and NK cells is suppressed, and the efficacy was evaluated in an orthotopic transplantation model of MOLM-13-GFP human cells. For the induction method, an orthotopic transplantation model was induced by injecting the cells in an amount of 5×10^5 cells/200 ul/mouse into the tail vein route. Four test groups were G1 excipient control group vehicle (saline), G2 No. 121 1 mg/kg (2D on/5D off), G3 No. 121 2 mg/kg (2D on/ 5D off), and G4 No. 121 2 mg/kg (BIW), and 5 animals per group were set. From the day after cell injection, the tail vein administration of Compound 121 was started at each dose and regimen for 3 to 4 weeks.

HepG2 = assay: Cancer cell proliferation GI50 (CCK-8); type: cell-based, human; conditions: Homo sapiens, HepG2, liver cancer, 72 hours
Procedure: (§1) The proliferation effect of SY-1365, which is known to have a proliferation inhibitory effect on various carcinoma cells, and the compound of the present invention on various cancer cells was measured and compared as GI50 (half maximal growth inhibitory concentration, the concentration at which cell proliferation is reduced by half).
(§2) Various carcinoma cells were cultured at 37° C. in a humidified condition in the presence of 5% CO2. Each cell cultured in a 96-well cell culture plate was treated with the compound of the present invention and cultured for 72 hours.
(§3) In this example, in order to confirm the proliferation inhibitory effect on various cancer cells, Compound 121 was tested as follows.
(§4) The cells were cultured with a culture medium shown in Table 9 below at 37° C. in a humidified condition in the presence of 5% CO2. Each cell cultured in a 96-well cell culture plate was treated with the compound of the present invention and cultured for 72 hours.

MDA-MB-231 = assay: Cancer cell proliferation GI50 (CCK-8); type: cell-based; conditions: Homo sapiens, MDA-MB-231, breast cancer, 72 hours
Procedure: as §1, §2, §3, §4

Hep3B = assay: Cancer cell proliferation GI50 (CCK-8); type: cell-based; conditions: Homo sapiens, liver cancer, 72 hours
Procedure: as §1, §2, §3, §4

MDA-MB-468 = assay: Cancer cell proliferation GI50 (CCK-8); type: cell-based; conditions: Homo sapiens, MDA-MB-468, breast cancer, 72 hours
Procedure: as §1, §2, §3, §4

Huh7 = assay: Cancer cell proliferation GI50 (CCK-8); type: cell-based; conditions: Homo sapiens, Huh7 (Huh-7), liver cancer, 72 hours
Procedure: as §1, §2, §3, §4

[1] = biological target: T1, Recombinant purified human CDK7 (Homo sapiens, UniProt P50613); assay: CDK7 activity inhibition, ADP-Glo kinase assay; type: biochemical; conditions: ATP 90 μM, MBP substrate, 2 hours 30° C.
T1 construct: purchased ThermoFisher PV3868
T1 sequence (P50613 whole entry): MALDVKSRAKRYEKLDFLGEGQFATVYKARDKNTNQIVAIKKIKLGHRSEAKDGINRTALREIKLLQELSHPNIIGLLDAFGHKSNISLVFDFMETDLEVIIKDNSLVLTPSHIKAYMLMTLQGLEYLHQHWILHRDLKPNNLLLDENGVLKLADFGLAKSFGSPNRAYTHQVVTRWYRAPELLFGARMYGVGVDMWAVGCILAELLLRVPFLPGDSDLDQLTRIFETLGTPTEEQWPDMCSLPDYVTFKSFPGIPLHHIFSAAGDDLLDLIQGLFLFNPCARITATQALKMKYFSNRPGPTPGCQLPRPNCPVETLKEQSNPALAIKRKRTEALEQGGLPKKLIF
T1 sequence (P51946 whole entry partner): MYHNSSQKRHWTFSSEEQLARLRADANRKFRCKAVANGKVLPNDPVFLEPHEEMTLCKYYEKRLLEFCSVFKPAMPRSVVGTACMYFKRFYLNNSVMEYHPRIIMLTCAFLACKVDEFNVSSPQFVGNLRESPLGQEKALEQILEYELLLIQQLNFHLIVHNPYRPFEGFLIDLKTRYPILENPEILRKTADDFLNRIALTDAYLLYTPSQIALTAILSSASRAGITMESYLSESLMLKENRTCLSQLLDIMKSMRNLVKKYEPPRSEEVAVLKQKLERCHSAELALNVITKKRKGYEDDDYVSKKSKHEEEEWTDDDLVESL
T1 sequence (P51948 whole entry partner): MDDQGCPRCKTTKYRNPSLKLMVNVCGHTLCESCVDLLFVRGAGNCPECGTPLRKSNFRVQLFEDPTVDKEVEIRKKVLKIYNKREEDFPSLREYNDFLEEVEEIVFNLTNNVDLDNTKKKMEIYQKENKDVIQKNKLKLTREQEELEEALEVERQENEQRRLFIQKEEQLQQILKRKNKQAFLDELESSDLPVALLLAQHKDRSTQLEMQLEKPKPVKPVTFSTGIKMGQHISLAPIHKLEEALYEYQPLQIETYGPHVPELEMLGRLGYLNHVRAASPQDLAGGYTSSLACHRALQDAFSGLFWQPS
How it was run: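 Human recombinant CDK7 (50 ng per reaction) in 40 mM Tris-Cl pH 7.5, 20 mM MgCl2, 0.1 mg/ml BSA, 50 μM DTT, with 1% DMSO. The reaction used 90 μM ATP and 0.2 μg/μl MBP substrate for 2 h at 30 °C. ADP formed was quantified by ADP-Glo luminescence to derive inhibition.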

MCF-7 = assay: Cancer cell proliferation GI50 (CCK-8); type: cell-based; conditions: Homo sapiens, MCF7, MCF-7, breast cancer, 72 hours
Procedure: as §3, §4

DU145 = assay: Cancer cell proliferation GI50 (CCK-8); type: cell-based; conditions: Homo sapiens, DU-145, DU145, prostate cancer, 72 hours
Procedure: as §3, §4

MOLT4 = assay: Cancer cell proliferation GI50 (CCK-8); type: cell-based; conditions: Homo sapiens, MOLT-4, MOLT4, acute lymphocytic leukemia, 72 hours
Procedure: as §3, §4

MV-4-11 cells = assay: MV-4-11 cell proliferation inhibition (CCK-8); type: cell-based; conditions: Homo sapiens, MV4-11, MV-4-11 proliferation, 72 hours
How it was run: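 The FLT3-mutant AML line MV-4-11 was exposed to compound for 72 h. Antiproliferative effect was read with the tetrazolium-based CCK-8 method.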

IC50 (MDA-MB-468 cells; Homo sapiens, MDA-MB-468, 72 h): ≤ 14 nM | IC50 (MDA-MB-468 cells; 72 hours): 14 nM | GI50 (HepG2): 14 nM | GI50 (MDA-MB-231): 6 nM | GI50 (Hep3B): 9 nM | GI50 (MDA-MB-468): 4 nM | GI50 (Huh7): 7 nM | IC50 [1]: 4.2 nM | GI50 (MCF-7): 15.1 nM | GI50 (DU145): 11.5 nM | GI50 (MOLT4): 4.51 nM | IC50 (MV-4-11 cells): 4.3 nM
SMILES: CCc1cnc(NC(=O)[C@@H](C)c2cccc(-c3cnc(NC(=O)/C=C/CN(C)C)c(C#N)c3)c2)s1 [Compound 121, (S,E)-N-(3-cyano-5-(3-(1-((5-ethylthiazol-2-yl)amino)-1-oxopropan-2-yl)phenyl)pyridin-2-yl)-4-(dimethylamino)but-2-enamide]
survival rate (MOLM-13-GFP human cells; FIG. 11): increase in the survival rate | change in body weight (MOLM-13-GFP human cells; FIG. 12): constant amount of body weight gain
